Experiments:
CB-2 cells [1] = assay: [3H]-thymidine incorporation (cell proliferation) in CB-2 cells; assay type: cell-based, Chinese hamster; settings: allicin 0-54 μM, 16 h
Method: (§1) The following cell lines were used: N87 human gastric tumor cell line expressing the ErbB-2 receptors (described by Park et al, 1990); CB-2 cell line, generated by transfection of Chinese hamster ovary (CHO) cells with mammalian expression vectors that direct expression of ErbB-2 (Tzahar et al, 1996); and 32D cell line known to be devoid of the ErbB-2 receptors (described by Pinkas-Kramarski, 1996).
[Methyl-^3H]thymidine incorporation (Amersham Pharmacia Biotech, UK) into DNA was measured in 96-well plates. Cells (1,000-20,000 cells/well) were grown 6 h after seeding at 37° C. Cells were treated with conjugates for 1 hour and then 3×washed with medium. […] Cells were harvested after 16 hours incubation at 37° C.
Different concentrations of pure allicin were applied to tissue cultured […] CB-2 cancer cells for quantitative determination of the effective concentration. Thus, CB-2 cells were cultured in 96-well plate (2000 cells/well) for 6-16 h at 37° C. Pure allicin was added (10 μl/well) from pre-diluted allicin solutions in PBS to final concentrations of 0-54 μM (0-9 μg/ml). [^3H]-Thymidine diluted with medium was added to the cell culture (0.8 μCi/well). Cells were harvested after incubation for 16 h at 37° C. and the level of incorporated [^3H]-thymidine was measured to determine the extent of cell proliferation. […]

CB-2 cells [2] = assay: Trypan blue viability of CB-2 cells; assay type: cell-based
Method: as §1
(§2) Viability of living cells was done after staining with Trypan Blue (0.025%) for 10 minutes.
(§3) Cell cultures of N87 (20,000 cells/well) were grown in 96-well plates and 32D cells were grown in suspension in 12-well plates (200,000 cells/ml). Cells were treated with: none, mAb ErbB-2 or mAb-ErbB-2-alliinase conjugate (total protein 2 μg/20,000 cells) for 1 hour at 37° C.

[3] = background statement; cited from earlier work
N87 cancer cells = assay: Trypan blue viability of N87 cells; assay type: cell-based; settings: alliin only, mAb ±alliin, or conjugate without alliin
Method: as §1, §2, §3

N-87 tumors = assay: In vivo assay of antitumor effects (tumor growth) in nude mice injected with N-87 cells; settings: alliin alone i.p., control mice
Method: N-87 cultured cells (3-5×10^6) were injected subcutaneously into the back of the mice. One to 5 days later, groups of 6 to 8 mice received either none or mAb-alliinase conjugate by intravenous injection (20 μg mAb/mouse). Conjugates were injected with 3-4 days intervals.
All mice were supplemented with Pyridoxine (vitamin B6) in the drinking water (100 mg/L). […] Tumor size was measured every second day.
All the animal groups were injected with N-87 cells 1-5 days before any treatment. • Group 1. […] Mice were treated with mAb-alliinase conjugates and alliin was administered regularly as described below.
MAb-alliinase conjugate was injected I.V. every 3-4 days. Mice were treated ×5 with the conjugate (20 μg/mouse) in. 3-4 day intervals. Total amount of mAb in the conjugate/mouse was 0.1 mg.

Compound	[3H]-thymidine incorporation (DNA synthesis) (CB-2 cells [1])	lethal concentration (CB-2 cells [2]; Trypan blue staining, CB-2 cells)	lifetime after being mixed with blood [3]	cell damage (Trypan blue) (CB-2 cells [2]; CB-2, alliin only, mAb ±alliin, or conjugate without alliin)	cell damage (Trypan blue) (N87 cancer cells)	tumor size (N-87 tumors)
C=CCS[S+]([O-])CC=C (stereo not drawn) [allicin, thio-2-propene-1-sulfinic acid S-allyl ester]	inhibits DNA synthesis	about 20 μM	disappears within a few minutes	–	–	–
S-allyl-L-cysteine sulfoxide [alliin]	–	–	–	not damaged	not damaged	no effect on the tumor size
